The source of these data is patent publication US20220098215A1, “DUOCARMYCIN ANALOGUES” (AUCKLAND UNISERVICES LIMITED, priority 2019, published 2022).

A short description of series [1]: Calculated lipophilicity, ACD/log P. The following applies: Table 3; difference CBI minus MBO, same side chain. An excerpt: (§1) Lipophilicity of small molecule compounds can be calculated in many different ways (reviewed for example in J. Pharm. Sci. (2009) 98, 861). To complement the data provided in Example 6 the calculated lipophilicity of several compounds of the present invention was compared to that of the seco-CBI analogues bearing the same minor groove binding side chain, using four different software packages, i.e. ChemDraw Professional (Perkin Elmer Informatics Inc) as in Example 6, ACD/log P (Advanced Chemistry Development), XLOGP3 (Shanghai Institute of Organic Chemistry), and MLOGP (Talete SRL, Milano, Italy), with the last three accessed via SwissADME (http://swissadme.ch/, Swiss Institute of Bioinformatics). The structures of the compounds are shown (where DNA binding units A, D, E and F, when attached to the 2-methylbenzoxazole alkylating subunit, represent compounds 23, 59, 66 and 74, respectively) and the calculated log P values are collected in Table 3.

The next series concerns ovarian carcinoma SKOV3. Briefly: Cytotoxicity: inhibition of proliferation, sulforhodamine B staining. Type of series: cell-based, human. The following applies: for IC50: Homo sapiens; for differential cytotoxic potency between enantiomers 82 and 83: SKOV3. Here is the method: (§2) The cytotoxicity of the payloads of the invention was determined by measuring the inhibition of proliferation of two human tumour cell lines, the cervical carcinoma SiHa, and the ovarian carcinoma SKOV3. Log-phase monolayers were exposed continuously to the payloads for 5 days in 96-well plates, followed by sulforhodamine B staining. The IC50 was determined by interpolation as the drug concentration required to inhibit cell density to 50% of that of the untreated controls on the same plate. Every plate contained the reference compound seco-CBI-TMI as an internal control.
(§3) The cytotoxicity of the payloads of the invention was determined by measuring the inhibition of proliferation of two human tumour cell lines, the cervical carcinoma SiHa, and the ovarian carcinoma SKOV3, following the general procedure described in Example 7. In the new determinations the stock solution of payload in DMSO was diluted in series prior to addition to the cell-containing wells of the 96-well plate. The cytotoxicity determinations were repeated several times (n=3-7 depending on compound and cell line) and the results are collected in Table 4.
In general terms: In SRB staining, fixed cells bind dye roughly in proportion to their protein.

A further series deals with cervical carcinoma SiHa. Described as above. The note with it: for IC50: Homo sapiens. Type of series: cell-based, human. The method, then: as §2, §3
Series [2] in a line: Calculated lipophilicity, ChemDraw Professional. The following applies: Table 3; difference CBI minus MBO, same side chain. Here is the method: The lipophilicity was calculated for the representative compounds of the invention using the ChemDraw Professional v.17.0.0 software package (Perkin Elmer Informatics Inc).
as §1

Series [3] can be described thus: Aqueous stability in neutral buffer (LC-MS / HPLC). The series is classed as physicochemical. The note with it: 4 μM in Tris buffer (pH 7.4) containing 10% DMF at 37° C., monitored over 300-500 min. The method, then:
The aqueous stability of 23 and reference compound seco-CBI-TMI was investigated by LC-MS analysis. Samples containing the payloads at a concentration of 4 μM in Tris buffer (pH 7.4) containing 10% DMF at 37° C. were monitored at regular intervals over 300-500 min.
The aqueous stability of compounds 52, 59 and 66 was investigated by HPLC analysis. The conditions were the same as those described in Example 8, i.e. samples contained the payloads at a concentration of 4 μM in Tris buffer (pH 7.4) containing 10% DMF at 37° C. In this experiment the solutions were monitored at hourly intervals over 8 h.

The conditions of series [4]: Bioorg. Med. Chem. Lett. (2010) 20, 1854; cited from earlier work.
The mark [5] stands for this setting: SK-OV-3, Example 25, Table 4, DMSO stock diluted in series before addition, n=3-7, read-out: IC50 SKOV3 Average.
The mark [6] stands for this setting: SK-OV-3, 120 h, Example 7, Table 2, continuous exposure 5 days, 96-well plates, read-out: IC50 SKOV3.

“Also recorded” adds a separate entry of the source. Like-named read-outs stand apart in the source and are kept apart here.

On to `COCCOc1ccc2[nH]c(C(=O)N3CC(CCl)c4c3cc(O)c3oc(C)nc43)cc2c1` (stereo not shown) [Compound 66, (8-(Chloromethyl)-4-hydroxy-2-methyl-7,8-dihydro-6H-oxazolo[4,5-e]indol-6-yl)(5-(2-methoxyethoxy)-1H-indol-2-yl)methanone], for which the “LogP ACD Δ” value in series [1] was 1.67. Further, the IC50 (usually the concentration at which inhibition is half-maximal) in the series with ovarian carcinoma SKOV3 (setting [5]) was 0.17 nM; in the series on cervical carcinoma SiHa (read-out: IC50 SiHa Average), 0.2 nM. In series [2], the “LogP ChemDraw Δ” value is given as 1.48.

In the case of `CC(=O)Nc1cnc2[nH]c(C(=O)N3CC(CCl)c4c3cc(O)c3oc(C)nc43)cc2c1` (stereo not shown) [Compound 70, N-(2-(8-(Chloromethyl)-4-hydroxy-2-methyl-7,8-dihydro-6H-oxazolo[4,5-e]indole-6-carbonyl)-1H-pyrrolo[2,3-b]pyridin-5-yl)acetamide], the IC50 in the series on ovarian carcinoma SKOV3 (setting [5]) and in the series with cervical carcinoma SiHa (read-out: IC50 SiHa Average) was more than 20 nM throughout.

Take `COc1cc2cc(C(=O)N3CC(CCl)c4c3cc(O)c3oc(C)nc43)[nH]c2c(OC)c1OC` (stereo not shown) [Compound 23, (8-(Chloromethyl)-4-hydroxy-2-methyl-7,8-dihydro-6H-oxazolo[4,5-e]indol-6-yl)(5,6,7-trimethoxy-1H-indol-2-yl)methanone]: in series [1], the “LogP ACD Δ” value is reported as 1.67. For the same compound, the “aqueous stability (LC-MS)” value in series [3] was “not stable under these conditions and was rapidly converted to a variety of products”. Also, the IC50 in the series with ovarian carcinoma SKOV3 (setting [6]) came out at 0.54 nM; in the series with ovarian carcinoma SKOV3 (setting [5]), 0.32 nM; with cervical carcinoma SiHa (120 h, read-out: IC50 SiHa), 0.28 nM; with cervical carcinoma SiHa (read-out: IC50 SiHa Average) it was 0.18 nM. Moreover, in series [2], the “LogP ChemDraw Δ” value is reported as 1.48.

For the compound `COc1cc2cc(C(=O)N3CC(CCl)c4c3cc(OCc3ccccc3)c3oc(C)nc43)[nH]c2c(OC)c1OC` (stereo not shown), the melting point – broadly, the temperature, or range, at which the solid turns liquid – was 225 to 227 °C.

Turning to `COC(=O)c1nc2c(O)cc3c(c2o1)C(CCl)CN3C(=O)c1cc2cc(OC)c(OC)c(OC)c2[nH]1` (stereo not shown) [seco-COI-TMI], the “cytotoxicity relative to reference compounds / CBI analogues” value in series [4] is given as “several hundred fold less cytotoxic”.

As for `CC(=O)Nc1ccc2nc(C(=O)N3CC(CCl)c4c3cc(O)c3oc(C)nc43)cn2c1` (stereo not shown) [Compound 74, N-(2-(8-(Chloromethyl)-4-hydroxy-2-methyl-7,8-dihydro-6H-oxazolo[4,5-e]indole-6-carbonyl)imidazo[1,2-a]pyridin-6-yl)acetamide], in series [1], the “LogP ACD Δ” value is recorded as 1.66. The figures for the IC50 with ovarian carcinoma SKOV3 (setting [5]) and with cervical carcinoma SiHa (read-out: IC50 SiHa Average) were 16.4 nM and 13 nM, respectively. For the same compound, the “LogP ChemDraw Δ” value in series [2] is given as 1.48.

Regarding `Cc1nc2c3c(cc(O)c2o1)N(C(=O)c1cc2cc(NC(=O)c4cc5cc(OCCN(C)C)ccc5[nH]4)ccc2[nH]1)CC3CCl` (stereo not shown) [Compound 53, N-(2-(8-(Chloromethyl)-4-hydroxy-2-methyl-7,8-dihydro-6H-oxazolo[4,5-e]indole-6-carbonyl)-1H-indol-5-yl)-5-(2-(dimethylamino)ethoxy)-1H-indole-2-carboxamide], the IC50 with ovarian carcinoma SKOV3 (setting [6]) came out at 9 nM; with ovarian carcinoma SKOV3 (setting [5]), 4.2 nM; with cervical carcinoma SiHa (120 h, read-out: IC50 SiHa), 7.2 nM; with cervical carcinoma SiHa (read-out: IC50 SiHa Average), 2.9 nM.

As for `COc1ccc(/C=C/C(=O)Nc2ccc3[nH]c(C(=O)N4CC(CCl)c5c4cc(O)c4oc(C)nc54)cc3c2)cc1` (stereo not shown) [Compound 63, (E)-N-(2-(8-(Chloromethyl)-4-hydroxy-2-methyl-7,8-dihydro-6H-oxazolo[4,5-e]indole-6-carbonyl)-1H-indol-5-yl)-3-(4-methoxyphenyl)acrylamide], the figures for the IC50 in the series with ovarian carcinoma SKOV3 (setting [5]) and with cervical carcinoma SiHa (read-out: IC50 SiHa Average) were 0.61 nM and 0.69 nM, respectively.

Consider `COc1cc2cc(C(=O)N3C[C@H](CCl)c4c3cc(O)c3oc(C)nc43)[nH]c2c(OC)c1OC` [Compound 83, (R)-(8-(chloromethyl)-4-hydroxy-2-methyl-7,8-dihydro-6H-oxazolo[4,5-e]indol-6-yl)(5,6,7-trimethoxy-1H-indol-2-yl)methanone], for which the figures for the IC50 with ovarian carcinoma SKOV3 (setting [5]) and in the series with cervical carcinoma SiHa (read-out: IC50 SiHa Average) were 33 nM and 14 nM, respectively. Further, the “differential cytotoxic potency between enantiomers 82 and 83” value in the series on ovarian carcinoma SKOV3 was found to be 110 fold; in the series on cervical carcinoma SiHa it was 93 fold.

On to `Cc1nc2c3c(cc(OCc4ccccc4)c2o1)N(C(=O)OC(C)(C)C)CC3CCl` (stereo not shown), for which the melting point was in the range of 142 to 143 °C.

Take `COc1ccc(/C=C/C(=O)N2CC(CCl)c3c2cc(O)c2oc(C)nc32)cc1O` (stereo not shown) [Compound 59, (E)-1-(8-(Chloromethyl)-4-hydroxy-2-methyl-7,8-dihydro-6H-oxazolo[4,5-e]indol-6-yl)-3-(3-hydroxy-4-methoxyphenyl) prop-2-en-1-one]: in series [1], the “LogP ACD Δ” value is given as 1.61. The values for the half-inhibitory concentration (IC50) in the series with ovarian carcinoma SKOV3 (setting [5]) and in the series with cervical carcinoma SiHa (read-out: IC50 SiHa Average) were 0.5 nM and 0.62 nM, respectively. Also, the “LogP ChemDraw Δ” value in series [2] was 1.48.

Consider `COc1cc2cc(C(=O)N3C[C@@H](CCl)c4c3cc(O)c3oc(C)nc43)[nH]c2c(OC)c1OC` [Compound 82, (S)-(8-(Chloromethyl)-4-hydroxy-2-methyl-7,8-dihydro-6H-oxazolo[4,5-e]indol-6-yl)(5,6,7-trimethoxy-1H-indol-2-yl)methanone], for which the results for the IC50 with ovarian carcinoma SKOV3 (setting [5]) and in the series on cervical carcinoma SiHa (read-out: IC50 SiHa Average) were 0.3 nM and 0.15 nM, respectively. Moreover, the “differential cytotoxic potency between enantiomers 82 and 83” value turned out to be 110 fold in the series with ovarian carcinoma SKOV3 and 93 fold in the series with cervical carcinoma SiHa.

For `Cc1nc2c3c(cc(O)c2o1)N(C(=O)OC(C)(C)C)CC3CCl` (stereo not shown), the melting point was in the range of 234 to 238 °C.

Regarding `COc1ccc2sc(C(=O)N3CC(CCl)c4c3cc(O)c3oc(C)nc43)cc2c1` (stereo not shown) [Compound 65, (8-(Chloromethyl)-4-hydroxy-2-methyl-7,8-dihydro-6H-oxazolo[4,5-e]indol-6-yl)(5-methoxybenzo[b]thiophen-2-yl)methanone], the values for the IC50 in the series with ovarian carcinoma SKOV3 (setting [5]) and in the series with cervical carcinoma SiHa (read-out: IC50 SiHa Average) were 1.7 nM and 2.7 nM, respectively.

Consider `COc1cc2cc(C(=O)N3CC(CCl)c4c3cc(O)c3ccccc43)[nH]c2c(OC)c1OC` (stereo not shown) [Seco-CBI-TMI, reference compound], for which the “aqueous stability (LC-MS)” value in series [3] is on record as “clean conversion to the cyclopropyl form (CBI-TMI), which was stable under these conditions; also recorded: prolonged stability”. Further, the IC50 with ovarian carcinoma SKOV3 (setting [6]) stood at 0.58 nM; in the series on ovarian carcinoma SKOV3 (setting [5]) it was 0.27 nM; with cervical carcinoma SiHa (120 h, read-out: IC50 SiHa), 0.23 nM; in the series with cervical carcinoma SiHa (read-out: IC50 SiHa Average), 0.16 nM.
